In ChEMBL document CHEMBL5724581, “Toxicity screen in purified B cell assay results for EUbOPEN Chemogenomics Library” (2024):
Values joined by “and” are separate entries in the source; they are usually repeats but may differ in a detail not shown here. Equal entries are not always repeated. Bridge positions count the residues as written; N and C are the ends. Square brackets hold non-standard residues; d marks the D form. Peptide text beside a SMILES is read from it. * marks the point of attachment. dPhe(4-NHCONH2) = NC(=O)Nc1ccc(C[C@@H](N)C(=O)O)cc1; Dihydroorotyl(S) = O=C1C[C@@H](C(=O)*)NC(=O)N1; dPhe(4-Cl) = N[C@H](Cc1ccc(Cl)cc1)C(=O)O; Phe(4-NH2) = Nc1ccc(C[C@H](N)C(=O)O)cc1; d2Nal = N[C@H](Cc1ccc2ccccc2c1)C(=O)O; Lys(iPr) = CC(C)NCCCC[C@H](N)C(=O)O; d3Pal = N[C@H](Cc1cccnc1)C(=O)O; Orn = NCCC[C@H](N)C(=O)O; Mpa = O=C(O)CCS

Each molecule was assayed on B cell (assay: Cytotoxicity screening of chemical probes in isolated B cell assay. Data is normalized to DMSO control, the cell viability average of replicates are reported. Reduction of ATP level more than 20% indicate compromised cell health status.). Conditions: human, 1 µM.

| Structure (SMILES) | Cell Viability |
| --- | --- |
| COc1ccncc1C(=O)NC(=O)Nc1ccc(-c2ccccc2)c(C(F)(F)F)c1 | 98.0011% |
| CSc1cc2c(cc1C(F)(F)F)N(C(=O)Nc1cccnc1)CC2 | 98.0011% |
| CC(=O)N[C@H](Cc1ccc2ccccc2c1)C(=O)N[C@H](Cc1ccc(Cl)cc1)C(=O)N[C@H](Cc1cccnc1)C(=O)N[C@@H](CO)C(=O)N[C@@H](Cc1ccc(NC(=O)[C@@H]2CC(=O)NC(=O)N2)cc1)C(=O)N[C@H](Cc1ccc(NC(N)=O)cc1)C(=O)N[C@@H](CC(C)C)C(=O)N[C@@H](CCCCNC(C)C)C(=O)N1CCC[C@H]1C(=O)N[C@H](C)C(N)=O [DEGARELIX] (Ac-[d2Nal][dPhe(4-Cl)][d3Pal]S[Phe(4-NH2)](Dihydroorotyl(S))[dPhe(4-NHCONH2)]L[Lys(iPr)]P[dA]-NH2) | 98.0011% |
| Cc1ccc(Cn2nc(C(=O)N[C@@H]3C(C)(C)[C@@H]4CC[C@@]3(C)C4)cc2-c2ccc(Cl)c(C)c2)cc1 | 98.0011% |
| N#Cc1ccc(NC(=O)Nc2ccccc2Br)c2nn[nH]c12 | 104.304% |
| c1ccc(NCc2ccc(CNc3ccccn3)cc2)nc1 | 99.8082% |
| Nc1nc2c(c(N3CCNCC3)n1)CCC1=C2[C@@H]2CCCC[C@@H]2O1 | 100.079% |
| NS(=O)(=O)c1c(Cl)ccc(NC(=O)Nc2cccc(Cl)c2Cl)c1O | 102.927% |
| C[C@@H]1CN(Cc2ccc(F)cc2)CCN1C(=O)COc1ccc(Cl)cc1NC(N)=O [BX 471 FREE BASE] | 98.0011% and 103.598% |
| CCc1nc2c(C)cc(C)nc2[nH]1 | 98.0011% |
| COc1ccc(C(=O)N2CCN(C(=O)/C=C/c3ccc(Br)cc3)CC2)cc1 | 98.0011% |
| C[C@]12N[C@H](Cc3ccccc31)c1ccccc12 [DIZOCILPINE] | 98.0011% |
| Cc1c(C(=O)NN2CCCCC2)nn(-c2ccc(Cl)cc2Cl)c1-c1ccc(Cl)cc1 [RIMONABANT] | 98.0011% |
| Cl.O=c1c2cccn2c2ccccc2n1CCCN1CCC(c2ccc(Cl)cc2)CC1 | 98.0011% and 103.839% |
| CSc1ccc(C(=O)N[C@@H]2CCCC[C@@H]2NC(=O)CNC(=O)c2cc(C(F)(F)F)ccc2NC(=O)NC(C)C)cc1 | 102.032% |
| CC(C)Cc1ccc([C@@H](C)C(=O)NS(C)(=O)=O)cc1 [REPARIXIN] | 98.0011% and 100.432% |
| CCCCC(=O)N(Cc1ccc(-c2ccccc2-c2nnn[nH]2)cc1)[C@H](C(=O)O)C(C)C | 98.0011% |
| C[C@H](CO)Nc1nc(SCc2cccc(Cl)c2F)nc2[nH]c(=O)sc12 | 95.8941% |
| O=C(NCc1ccc(F)cc1)N1CCN2C(=O)OC(c3ccccc3)(c3ccccc3)C2C1 (stereo not drawn) | 98.0011% |
| CC#C[C@@H](CC(=O)O)c1ccc(OCc2cccc(-c3ccc(C(F)(F)F)cc3)c2)cc1 | 98.0011% |
| CC(C)N(CCCCOCC(=O)NS(C)(=O)=O)c1cnc(-c2ccccc2)c(-c2ccccc2)n1 [SELEXIPAG] | 98.0011% |
| O=S(=O)(c1ccccc1)c1cnc2c(N3CCNCC3)cccc2c1 [INTEPIRDINE] | 98.0011% |
| C[C@@H](OC[C@@]1(c2ccccc2)CC[C@]2(CCC(=O)N2)CN1)c1cc(C(F)(F)F)cc(C(F)(F)F)c1 [ROLAPITANT] | 98.0011% |
| c1cc(CN2CCCNCCNCCCNCC2)ccc1CN1CCCNCCNCCCNCC1 [PLERIXAFOR] | 104.498% |
| COc1cccc2c1c(NS(=O)(=O)c1ccc(Cl)s1)nn2Cc1cccc(CNC(=O)C(C)(C)O)c1 | 103.681% |
| C[C@@H](O[C@H]1OCCN(Cc2n[nH]c(=O)[nH]2)[C@H]1c1ccc(F)cc1)c1cc(C(F)(F)F)cc(C(F)(F)F)c1 [APREPITANT] | 98.0011% |
| COC[C@@H](c1ccc(C(F)(F)F)cc1)N1CCN(C2(C)CCN(C(=O)c3c(C)ncnc3C)CC2)C[C@@H]1C.O=C(O)/C=C\C(=O)O [VICRIVIROC MALEATE] | 101.876% |

| Structure (SMILES) | Cell Viability |
| --- | --- |
| Cc1nc[nH]c1CCN.Cl | 98.0011% |
| Cc1nnc(C(=O)NC(C)(C)c2nc(C(=O)NCc3ccc(F)cc3)c(O)c(=O)n2C)o1 | 103.493% |
| CCNC1(C(N)=O)CCN(c2ncnc3c2nc(-c2ccccc2Cl)n3-c2ccc(Cl)cc2)CC1 [OTENABANT] | 98.0011% |
| COC(c1ccccc1)(c1ccccc1)[C@H](Oc1nc(C)cc(C)n1)C(=O)O [AMBRISENTAN] | 98.0011% |
| Cc1c(F)cccc1NC(=O)Nc1ccc(Cl)c(S(=O)(=O)[C@H]2CCCNC2)c1O [DANIRIXIN] | 101.889% |
| O=C(O)c1n[nH]c2c1C[C@H]1C[C@@H]21 | 98.0011% |
| c1cc(OCCCN2CCCCC2)ccc1CN1CCCCC1 [JNJ-5207852] | 98.0011% |
| O=C(O)Cc1ccccc1Nc1c(Cl)cccc1Cl [DICLOFENAC] | 98.0011% and 91.1433% |
| CC(C)C[C@@H]1NC(=O)[C@@H](C(C)C)NC(=O)[C@@H]2CCCN2C(=O)[C@@H](CC(=O)O)NC(=O)[C@@H](Cc2c[nH]c3ccccc23)NC1=O [BQ-123] (cyclo(L[dW][dD]P[dV])) | 98.0011% |
| Cc1ccc(/C(=C\CN2CCCC2)c2ccccn2)cc1 [TRIPROLIDINE] | 98.0011% |
| COc1cc(C(=O)N(CCCc2ccccc2)Cc2ccc(CC(=O)O)cc2)cc(OC)c1C | 98.0011% |
| CC(C)C[C@H](CO)Nc1nc(S[C@@H](C)c2ccccc2)nc2nc(N)sc12 [AZD-8797] | 97.9584% |
| CCOc1nc2cccc(C(=O)O)c2n1Cc1ccc(-c2ccccc2-c2nnn[nH]2)cc1 | 98.0011% |
| CCOc1ccc(C[C@H]2NC(=O)CCSSC[C@@H](C(=O)N3CCC[C@H]3C(=O)N[C@@H](CCCN)C(=O)NCC(N)=O)NC(=O)[C@H](CC(N)=O)NC(=O)[C@H]([C@@H](C)O)NC(=O)[C@H]([C@@H](C)CC)NC2=O)cc1 [ATOSIBAN] ([Mpa][dY](Et)ITNCP[Orn]G-NH2; disulfide 1-6) | 98.0011% |
| NC(=O)c1ccc(CNC(=O)NC[C@H]2CN(Cc3ccc(Cl)c(Cl)c3)CCO2)cc1 | 98.0011% |
| CC1(C)[C@H]2C[C@H](C/C=C\CCCC(=O)O)[C@@H](NC(=O)c3csc4ccc(O)cc34)[C@@H]1C2 | 98.0011% |
| Cl.Clc1ccc2nsnc2c1NC1=NCCN1 [TIZANIDINE HYDROCHLORIDE] | 98.0011% |
| Cc1ccc2c(c1CCC(=O)O)CC[C@@H](NS(=O)(=O)c1ccc(Cl)cc1)C2 [TERUTROBAN] | 98.0011% |
| Cc1[nH]cnc1CN1CCc2c(c3ccccc3n2C)C1=O [ALOSETRON] | 98.0011% |
| COCCn1c(C)c(C)s/c1=N\C(=O)C1C(C)(C)C1(C)C | 98.0011% |
| Cc1cc(OCCCS(C)(=O)=O)cc(C)c1-c1cccc(COc2ccc3c(c2)OC[C@H]3CC(=O)O)c1 | 98.0011% |
| Cc1cc(Cn2cnc3c2C[C@@H](C(=O)O)N(C(=O)C(c2ccccc2)c2ccccc2)C3)ccc1N(C)C | 98.0011% |
| O=C(NCC(=O)N1CC[C@H](N[C@H]2CC[C@@](O)(c3ccc(-c4ncccn4)cn3)CC2)C1)c1cccc(C(F)(F)F)c1 [PF-4136309] | 99.5458% |
| CC[C@H]1OC(=O)[C@H](C)[C@@H](O[C@H]2C[C@@](C)(OC)[C@@H](O)[C@H](C)O2)[C@H](C)[C@@H](O[C@@H]2O[C@H](C)C[C@H](N(C)C)[C@H]2O)[C@@]2(C)CC(C)=C(O2)[C@H](C)[C@@H](O)[C@]1(C)O | 98.0011% |
| N#Cc1c(O)nc(SCc2cccc(F)c2F)nc1C1CC1 | 104.007% |
| CCCn1c(=O)c2[nH]c(C3CCCC3)nc2n(CCC)c1=O [1,3-DIPROPYL-8-CYCLOPENTYLXANTHINE [DPCPX]] | 98.0011% |
